From PubChem BioAssay AID328 (DTP/NCI, 2004)
“And” between values parts separate entries of the source, which are not always exact repeats. Equal entries are not always repeated. Inconclusive results and toxic doses are left out.

Tested on: BDF1 mice, P388 leukemia ip, median survival T/C
Test: NCI In Vivo Anticancer Drug Screen. Data for tumor model P388 Leukemia (intraperitoneal) in B6D2F1 (BDF1) mice
Conditions: endpoint: median survival time, higher = longer survival
Outline: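 T/C = treated-group survival ÷ vehicle-control survival; tumour transplanted into mice before dosing.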

[1] = dose: 50.0 mg/kg/injection, schedule: Q01DX009 (ip), vehicle: saline
[2] = dose: 100.0 mg/kg/injection, schedule: Q01DX009 (ip), vehicle: saline
[3] = dose: 200.0 mg/kg/injection, schedule: Q01DX009 (ip), vehicle: saline
[4] = dose: 12.5 mg/kg/injection, schedule: Q01DX009 (ip), vehicle: saline
[5] = dose: 25.0 mg/kg/injection, schedule: Q01DX009 (ip), vehicle: saline
[6] = dose: 25.0 mg/kg/injection, schedule: Q01DX009 (ip), vehicle: saline with Tween-80
[7] = dose: 50.0 mg/kg/injection, schedule: Q01DX009 (ip), vehicle: saline with Tween-80
[8] = dose: 25.0 mg/kg/injection, schedule: Q01DX009 (ip), vehicle: Klucel (hydroxypropylcellulose) (HPC)
[9] = dose: 12.5 mg/kg/injection, schedule: Q01DX009 (ip), vehicle: Klucel (hydroxypropylcellulose) (HPC)
[10] = dose: 50.0 mg/kg/injection, schedule: Q01DX009 (ip), vehicle: Klucel (hydroxypropylcellulose) (HPC)
[11] = dose: 100.0 mg/kg/injection, schedule: Q04DX003 (ip), vehicle: Klucel (hydroxypropylcellulose) (HPC)
[12] = dose: 100.0 mg/kg/injection, schedule: Q01DX009 (ip), vehicle: saline with Tween-80
[13] = dose: 200.0 mg/kg/injection, schedule: Q01DX009 (ip), vehicle: saline with Tween-80
[14] = dose: 200.0 mg/kg/injection, schedule: Q04DX003 (ip), vehicle: Klucel (hydroxypropylcellulose) (HPC)
[15] = dose: 400.0 mg/kg/injection, schedule: Q04DX003 (ip), vehicle: Klucel (hydroxypropylcellulose) (HPC)

Compound: C1=CC2CC1C1CSCC21 (centres undefined)
- T/C (dose: 0.03 mg/kg/injection, schedule: Q04DX003 (ip), vehicle: saline): 100 % of control
- T/C (dose: 0.06 mg/kg/injection, schedule: Q04DX003 (ip), vehicle: saline): 91 % of control
- T/C (dose: 0.13 mg/kg/injection, schedule: Q04DX003 (ip), vehicle: saline): 95 % of control
- T/C (dose: 0.19 mg/kg/injection, schedule: Q01DX009 (ip), vehicle: saline): 95 % of control
- T/C (dose: 0.27 mg/kg/injection, schedule: Q04DX003 (ip), vehicle: saline): 100 % of control
- T/C (dose: 0.39 mg/kg/injection, schedule: Q01DX009 (ip), vehicle: saline): 104 % of control

Compound: CCC(CC)c1ccccn1
- T/C [1]: 104 % of control
- T/C (dose: 100.0 mg/kg/injection, schedule: Q01DX009 (ip), vehicle: carboxymethylcellulose (CMC)): 99 % of control
- T/C [2]: 105 % of control
- T/C (dose: 200.0 mg/kg/injection, schedule: Q01DX009 (ip), vehicle: carboxymethylcellulose (CMC)): 108 % of control
- T/C [3]: 113 % of control

Compound: CCCCCCCCCCCCSC(=N)N
- T/C (dose: 0.39 mg/kg/injection, schedule: Q04DX003 (ip), vehicle: saline): 104 % of control
- T/C (dose: 0.78 mg/kg/injection, schedule: Q04DX003 (ip), vehicle: saline): 104 % of control
- T/C (dose: 3.12 mg/kg/injection, schedule: Q04DX003 (ip), vehicle: saline): 100 % of control
- T/C (dose: 6.25 mg/kg/injection, schedule: Q01DX009 (ip), vehicle: saline): 109 % of control
- T/C [4]: 100 % of control
- T/C [5]: 100 % of control

Compound: S=c1[nH]ncn1-c1ccccc1
- T/C (dose: 6.25 mg/kg/injection, schedule: Q01DX009 (ip), vehicle: saline with Tween-80): 99 % of control
- T/C (dose: 12.5 mg/kg/injection, schedule: Q01DX009 (ip), vehicle: saline with Tween-80): 99 % of control
- T/C [6]: 99 % of control
- T/C [7]: 96 % of control

Compound: CCC[CH2][Sn]([CH2]CCC)[CH2]CCC.CCC[CH2][Sn]([CH2]CCC)[CH2]CCC
- T/C (dose: 3.75 mg/kg/injection, schedule: Q01DX009 (ip), vehicle: saline with Tween-80): 110 % of control
- T/C (dose: 7.5 mg/kg/injection, schedule: Q01DX009 (ip), vehicle: saline with Tween-80): 92 % of control
- T/C (dose: 13.0 mg/kg/injection, schedule: Q04DX003 (ip), vehicle: saline with Tween-80): 112 % of control
- T/C (dose: 15.0 mg/kg/injection, schedule: Q01DX009 (ip), vehicle: saline with Tween-80): 114 % of control
- T/C (dose: 20.0 mg/kg/injection, schedule: Q04DX003 (ip), vehicle: saline with Tween-80): 100 % of control
- T/C [8]: 95 % of control
- T/C (dose: 30.0 mg/kg/injection, schedule: Q04DX003 (ip), vehicle: saline with Tween-80): 108 % of control

Compound: C[N+](C)(C)CC(O)CC#N (centres undefined)
- T/C [9]: 100 % of control
- T/C [8]: 100 % of control
- T/C [10]: 90 % of control

Compound: O=C1C(Br)=CC(=C2C=C(Br)C(=O)C(Br)=C2)C=C1Br
- T/C (dose: 50.0 mg/kg/injection, schedule: Q04DX003 (ip), vehicle: Klucel (hydroxypropylcellulose) (HPC)): 113 % of control
- T/C [11]: 122 % of control

Compound: CCCCCCCCCCCCOB(OCCCCCCCCCCCC)OCCCCCCCCCCCC
- T/C [6]: 100 % of control
- T/C (dose: 25.0 mg/kg/injection, schedule: Q04DX003 (ip), vehicle: saline with Tween-80): 91 % of control
- T/C [7]: 108 % of control
- T/C (dose: 50.0 mg/kg/injection, schedule: Q04DX003 (ip), vehicle: saline with Tween-80): 95 % of control
- T/C [12]: 100 % of control
- T/C (dose: 100.0 mg/kg/injection, schedule: Q04DX003 (ip), vehicle: saline with Tween-80): 116 % of control

Compound: C=C(C)C(=O)NCC(=O)NC(Cc1ccccc1)C(=O)Oc1ccc([N+](=O)[O-])cc1 (centres undefined)
- T/C [6]: 97 % of control
- T/C [7]: 101 % of control
- T/C [12]: 99 % of control

Compound: O=C(c1ccccc1)C1CN(C2CCCC2)C1c1ccccc1 (centres undefined)
- T/C [7]: 91 % of control
- T/C [12]: 92 % of control
- T/C [13]: 91 % of control

Compound: Cc1ccc(CCO)c(C)c1
- T/C [10]: 95 % of control
- T/C (dose: 100.0 mg/kg/injection, schedule: Q01DX009 (ip), vehicle: Klucel (hydroxypropylcellulose) (HPC)): 109 % of control
- T/C [11]: 100 % of control
- T/C (dose: 200.0 mg/kg/injection, schedule: Q01DX009 (ip), vehicle: Klucel (hydroxypropylcellulose) (HPC)): 90 % of control
- T/C [14]: 90 % of control
- T/C (dose: 400.0 mg/kg/injection, schedule: Q01DX009 (ip), vehicle: Klucel (hydroxypropylcellulose) (HPC)): 113 % of control
- T/C [15]: 100 % of control

Compound: Cc1ccc(S(=O)(=O)NCCCCCC(=O)OCc2ccccc2)cc1
- T/C [1]: 99 % of control
- T/C [2]: 108 % of control
- T/C [3]: 100 % of control

Compound: CCCCCOc1cc(C(C)=O)cc(OC)c1OC(=O)c1cc([N+](=O)[O-])cc([N+](=O)[O-])c1
- T/C (dose: 100.0 mg/kg/injection, schedule: Q01DX001 (ip), vehicle: saline with Tween-80): 100 % of control
- T/C (dose: 200.0 mg/kg/injection, schedule: Q01DX001 (ip), vehicle: saline with Tween-80): 90 % of control
- T/C (dose: 400.0 mg/kg/injection, schedule: Q01DX001 (ip), vehicle: saline with Tween-80): 90 % of control

Compound: COC(=O)c1ccc(-c2cc(Cl)c3cc(S(=O)(=O)F)ccc3n2)cc1
- T/C [12]: 90 % of control
- T/C [13]: 90 % of control

Compound: C1CCc2nnnn2CC1
- T/C (dose: 2.34 mg/kg/injection, schedule: Q04DX003 (ip), vehicle: saline): 91 % of control
- T/C (dose: 4.68 mg/kg/injection, schedule: Q04DX003 (ip), vehicle: saline): 91 % of control
- T/C (dose: 9.37 mg/kg/injection, schedule: Q04DX003 (ip), vehicle: saline): 91 % of control
- T/C [4]: 118 % of control
- T/C (dose: 18.75 mg/kg/injection, schedule: Q04DX003 (ip), vehicle: saline): 100 % of control
- T/C [5]: 118 % of control

Compound: O=C1OC(c2ccc(Cl)cc2)=N/C1=C\c1ccccc1
- T/C (dose: 100.0 mg/kg/injection, schedule: Q01DX001 (ip), vehicle: Klucel (hydroxypropylcellulose) (HPC)): 95 % of control
- T/C [11]: 86 % of control
- T/C (dose: 200.0 mg/kg/injection, schedule: Q01DX001 (ip), vehicle: Klucel (hydroxypropylcellulose) (HPC)): 95 % of control
- T/C [14]: 90 % of control
- T/C (dose: 400.0 mg/kg/injection, schedule: Q01DX001 (ip), vehicle: Klucel (hydroxypropylcellulose) (HPC)): 100 % of control
- T/C [15]: 95 % of control

Compound: O=C1C=CC(=O)N1c1ccc(Br)cc1Cl
- T/C (dose: 1.0 mg/kg/injection, schedule: Q04DX003 (ip), vehicle: saline): 155 % of control
- T/C (dose: 2.0 mg/kg/injection, schedule: Q04DX003 (ip), vehicle: saline): 122 % of control

Compound: N#CSc1ccc(Nc2ccc(SC#N)cc2)cc1
- T/C (dose: 6.25 mg/kg/injection, schedule: Q01DX009 (ip), vehicle: Klucel (hydroxypropylcellulose) (HPC)): 100 % of control
- T/C [9]: 100 % of control
- T/C [8]: 118 % of control
- T/C (dose: 35.0 mg/kg/injection, schedule: Q01DX009 (ip), vehicle: Klucel (hydroxypropylcellulose) (HPC)): 108 % of control
- T/C [10]: 109 % of control
- T/C (dose: 53.0 mg/kg/injection, schedule: Q01DX009 (ip), vehicle: Klucel (hydroxypropylcellulose) (HPC)): 105 % of control
- T/C (dose: 80.0 mg/kg/injection, schedule: Q01DX009 (ip), vehicle: Klucel (hydroxypropylcellulose) (HPC)): 109 % of control and 110 % of control
- T/C (dose: 120.0 mg/kg/injection, schedule: Q01DX009 (ip), vehicle: Klucel (hydroxypropylcellulose) (HPC)): 120 % of control and 122 % of control

Compound: CC1=CCCC2(CCC3(C)CC32)C1(C)C (centres undefined)
- T/C (dose: 45.0 mg/kg/injection, schedule: Q01DX009 (ip), vehicle: saline): 90 % of control
- T/C [1]: 100 % of control
- T/C (dose: 67.0 mg/kg/injection, schedule: Q01DX009 (ip), vehicle: saline): 109 % of control
- T/C [2]: 113 % of control and 120 % of control

Compound: C=C1C(=O)O[C@H]2[C@H]1[C@H](OC(=O)/C(C)=C\C)CC(=C)[C@@H]1[C@H](O)[C@H]3O[C@@]3(C)[C@@]12O
- T/C (dose: 5.0 mg/kg/injection, schedule: Q01DX010 (ip), vehicle: carboxymethylcellulose (CMC)): 104 % of control
- T/C (dose: 10.0 mg/kg/injection, schedule: Q01DX010 (ip), vehicle: carboxymethylcellulose (CMC)): 104 % of control
- T/C (dose: 20.0 mg/kg/injection, schedule: Q01DX010 (ip), vehicle: carboxymethylcellulose (CMC)): 113 % of control
